Like-named read-outs stand apart in the source and are kept apart here.
Test system: HIV-1 RF virus in CEM-SS cells
Assay: HIV-1 cell protection assay (XTT dye reduction)
Assay type: cell-based
Protocol: Six days later, 50 μl of XTT solution (1 mg/ml XTT tetrazolium and 20 nM phenazine methosulfate) were added to the wells and the plates were reincubated for four hours. Viability, as determined by the amount of XTT formazan produced, was quantified spectrophotometrically by absorbance at 450 nm.
Data from CPE assays were expressed as the percent of formazan produced in compound-treated cells compared to formazan produced in wells of uninfected, compound-free cells. […] The 50% cytotoxicity concentration (CC50) was calculated as the concentration of compound that decreased the percentage of formazan produced in uninfected, compound-treated cells to 50% of that produced in uninfected, compound-free cells. The therapeutic index was calculated by dividing the cytotoxicity (CC50) by the antiviral activity (EC50).

[1] = Human immunodeficiency virus 1, 144 h, RF strain of HIV-1, CEM-SS cells, XTT read-out after six days, read-out: EC50
[2] = Human immunodeficiency virus 1, CEM-SS, 144 h

O=c1c2ncc3c(c(CN4CCC(CO)CC4)cn3Cc3ccc(F)cc3)c2ccn1O [Example 5, 3-(4-fluorobenzyl)-7-hydroxy-1-{[4-(hydroxymethyl)piperidin-1-yl]methyl}-3,7-dihydro-6H-pyrrolo[2,3-c]-1,7-naphthyridin-6-one]
EC50 [1]: 12 nM

C[C@H](O)CNCc1cn(Cc2ccc(F)cc2)c2cnc3c(=O)n(O)ccc3c12 [Example 2, 3-(4-fluorobenzyl)-7-hydroxy-1-({[(2S)-2-hydroxypropyl]amino}methyl)-3,7-dihydro-6H-pyrrolo[2,3-c]-1,7-naphthyridin-6-one]
EC50 [1]: 60.9 nM

N#Cc1cc(F)ccc1Cn1ccc2c3c(ncc21)C(=O)N(O)CC3 [Example 91, 5-fluoro-2-[(7-hydroxy-6-oxo-6,7,8,9-tetrahydro-3H-pyrrolo[2,3-c]-1,7-naphthyridin-3-yl)methyl]benzonitrile]
EC50 [2]: 2 nM

COCCN(C)Cc1cn(Cc2ccc(F)cc2)c2cnc3c(c12)CCN(O)C3=O [Example 77, 3-(4-fluorobenzyl)-7-hydroxy-1-{[(2-methoxyethyl)(methyl)amino]methyl}-3,7,8,9-tetrahydro-6H-pyrrolo[2,3-c]-1,7-naphthyridin-6-one]
EC50 [2]: 2 nM

CC(CN(C)C)NCc1cn(Cc2ccc(F)cc2)c2cnc3c(=O)n(O)ccc3c12 (stereo not shown) [Example 4, 1-({[2-(dimethylamino)-1-methylethyl]amino}methyl)-3-(4-fluorobenzyl)-7-hydroxy-3,7-dihydro-6H-pyrrolo[2,3-c]-1,7-naphthyridin-6-one]
EC50 [1]: 51 nM

O=C1c2ncc3c(c(S(=O)(=O)N4CCCC4)cn3Cc3ccc(F)cc3)c2CCN1O [Example 13, 3-(4-fluorobenzyl)-7-hydroxyl(pyrrolidin-1-ylsulfonyl)-3,7,8,9-tetrahydro-6H-pyrrolo[2 3-c]-1,7-naphthyridin-6-one]
EC50 [2]: 3 nM

CCCCC1Cc2c(ncc3c2ccn3Cc2ccc(F)cc2)C(=O)N1O (stereo not shown) [Example 1, 8-butyl-3-(4-fluorobenzyl)-7-hydroxy-3,7,8,9-tetrahydro-6H-pyrrolo[2,3-c]-1,7-naphthyridin-6-one]
EC50 [1]: 460 nM

O=c1c2ncc3c(c(CN4CCCC4)cn3Cc3ccc(F)cc3)c2ccn1O [Example 6, 3-(4-fluorobenzyl)-7-hydroxy-1-(pyrrolidin-1-ylmethyl)-3,7-dihydro-6H-pyrrolo[2,3-c]-1,7-naphthyridin-6-one]
EC50 [1]: 5.3 nM

O=C1c2ncc3c(c(CN4CCCCC4)cn3Cc3ccc(F)cc3)c2CCN1O [Example 38, 3-(4-fluorobenzyl)-7-hydroxy-1-(piperidin-1-ylmethyl)-3,7,8,9-tetrahydro-6H-pyrrolo[2,3-c]-1,7-naphthyridin-6-one]
EC50 [2]: 5.4 nM

O=C1c2ncc3[nH]ccc3c2CCN1O [Example 83, 7-hydroxy-3,7,8,9-tetrahydro-6H-pyrrolo[2,3-c]-1,7-naphthyridin-6-one]
EC50 [1]: 14 nM

CN(C)Cc1cn(Cc2ccc(F)cc2)c2cnc3c(c12)CCN(O)C3=O [Example 12, 1-[(dimethylamino)methyl]-3-(4-fluorobenzyl)-7-hydroxy-3,7,8,9-tetrahydro-6H-pyrrolo[2,3-c]-1,7-naphthyridin-6-one]
EC50 [2]: 13 nM

O=C1c2ncc3c(c(CN4CCC(F)(F)C4)cn3Cc3ccc(F)cc3)c2CCN1O [Example 37, 1-[(3,3-difluoropyrrolidin-1-yl)methyl]-3-(4-fluorobenzyl)-7-hydroxy-3,7,8,9-tetrahydro-6H-pyrrolo[2,3-c]-1,7-naphthyridin-6-one]
EC50 [2]: 1.5 nM

CCN(C)Cc1cn(Cc2ccc(F)cc2)c2cnc3c(=O)n(O)ccc3c12 [Example 3, 1-{[ethyl(methyl)amino]methyl}-3-(4-fluorobenzyl)-7-hydroxy-3,7-dihydro-6H-pyrrolo[2,3-c]-1,7-naphthyridin-6-one]
EC50 [1]: 2.5 nM
